Read-outs that look alike come from different tables or passages of the source.
Tests used:
[1] = molecular target: T1, human recombinant HDAC1 (Homo sapiens, UniProt Q13547); test: HDAC1 enzyme activity inhibition (HDAC Fluorimetric Drug Discovery Kit); assay type: biochemical; conditions: read-out: HDAC1
T1 construct: purchased Enzo Life Science, Inc. BML-SE456
Procedure: (§1) An experiment was conducted to identify the selectivity of the compound represented by formula I of the present invention to HDAC6 through an experiment on HDAC1 and HDAC6 enzyme activity inhibition.
(§2) A 5-fold dilution of the compound was divided into a 96-well plate, after which […] of the enzyme and 10 μM of the substrate were inserted into each well and subjected to reaction at 30° C. for 60 minutes, such that Fluor de Lys® Developer II (BML-KI176) was inserted thereinto and subjected to reaction for 30 minutes and finished.

[2] = molecular target: T2, human recombinant HDAC6 (Homo sapiens, UniProt Q9UBN7); test: HDAC6 enzyme activity inhibition (HDAC Fluorimetric Drug Discovery Kit); assay type: biochemical
T2 construct: purchased Calbiochem Inc. 382180
T2 sequence (Q9UBN7 1-1215): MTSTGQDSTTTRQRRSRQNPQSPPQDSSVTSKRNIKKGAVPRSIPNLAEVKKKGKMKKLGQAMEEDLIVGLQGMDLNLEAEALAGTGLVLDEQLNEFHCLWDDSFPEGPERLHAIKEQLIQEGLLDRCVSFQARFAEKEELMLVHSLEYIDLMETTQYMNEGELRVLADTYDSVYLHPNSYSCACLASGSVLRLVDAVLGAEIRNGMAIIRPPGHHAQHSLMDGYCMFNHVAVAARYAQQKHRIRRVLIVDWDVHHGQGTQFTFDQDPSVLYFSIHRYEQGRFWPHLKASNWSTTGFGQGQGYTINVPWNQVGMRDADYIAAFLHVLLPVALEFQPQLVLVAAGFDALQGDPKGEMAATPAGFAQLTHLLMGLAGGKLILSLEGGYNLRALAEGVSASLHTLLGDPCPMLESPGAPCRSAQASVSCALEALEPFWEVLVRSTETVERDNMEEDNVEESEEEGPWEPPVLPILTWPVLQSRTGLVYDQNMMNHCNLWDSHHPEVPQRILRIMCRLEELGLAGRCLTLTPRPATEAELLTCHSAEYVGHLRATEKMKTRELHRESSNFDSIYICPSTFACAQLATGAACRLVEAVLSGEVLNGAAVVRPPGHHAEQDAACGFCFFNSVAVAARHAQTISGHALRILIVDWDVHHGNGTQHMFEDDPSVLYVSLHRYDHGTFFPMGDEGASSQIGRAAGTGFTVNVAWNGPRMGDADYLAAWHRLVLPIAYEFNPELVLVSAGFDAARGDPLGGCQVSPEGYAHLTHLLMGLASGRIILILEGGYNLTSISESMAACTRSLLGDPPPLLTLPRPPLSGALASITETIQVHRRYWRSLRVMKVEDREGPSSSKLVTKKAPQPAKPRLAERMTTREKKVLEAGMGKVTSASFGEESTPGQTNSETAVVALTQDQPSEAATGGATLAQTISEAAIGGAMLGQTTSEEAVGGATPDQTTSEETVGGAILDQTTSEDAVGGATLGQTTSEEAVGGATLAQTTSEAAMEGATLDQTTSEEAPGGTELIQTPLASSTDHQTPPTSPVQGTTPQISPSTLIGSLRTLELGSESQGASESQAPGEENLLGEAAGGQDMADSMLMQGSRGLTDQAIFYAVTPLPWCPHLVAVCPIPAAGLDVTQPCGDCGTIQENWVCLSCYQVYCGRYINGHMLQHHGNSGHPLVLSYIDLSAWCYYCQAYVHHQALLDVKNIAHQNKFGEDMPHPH
Procedure: as §1, §2

[3] = human recombinant HDAC1, IC50 calculated with GraphPad Prism
[4] = human recombinant HDAC6, IC50 calculated with GraphPad Prism
[5] = human recombinant HDAC1, Fluor de Lys substrate, 30° C. 60 minutes
[6] = human recombinant HDAC6, same protocol as HDAC1

T1 sequence (Q13547 whole entry): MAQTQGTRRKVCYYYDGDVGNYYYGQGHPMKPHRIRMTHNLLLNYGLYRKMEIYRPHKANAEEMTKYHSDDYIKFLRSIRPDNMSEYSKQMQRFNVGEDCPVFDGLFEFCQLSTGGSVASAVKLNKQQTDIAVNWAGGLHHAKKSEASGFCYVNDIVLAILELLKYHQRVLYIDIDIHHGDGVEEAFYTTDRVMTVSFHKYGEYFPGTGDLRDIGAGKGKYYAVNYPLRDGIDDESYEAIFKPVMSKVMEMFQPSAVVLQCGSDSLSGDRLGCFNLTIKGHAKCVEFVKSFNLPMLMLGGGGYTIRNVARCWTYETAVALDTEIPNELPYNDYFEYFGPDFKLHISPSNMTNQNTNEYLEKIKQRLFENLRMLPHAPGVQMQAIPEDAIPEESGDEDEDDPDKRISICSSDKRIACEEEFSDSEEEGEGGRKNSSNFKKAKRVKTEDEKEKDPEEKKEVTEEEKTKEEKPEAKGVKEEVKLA

SMILES: FC1CN(Cc2cccc(-c3cn(Cc4ccc(-c5nnc(C(F)F)o5)cn4)nn3)c2)C1 [Compound 3964, 2-(difluoromethyl)-5-(6-((4-(3-((3-fluoroazetidin-1-yl)methyl)phenyl)-1H-1,2,3-triazol-1-yl)methyl)pyridin-3-yl)-1,3,4-oxadiazole]
- IC50 [1, 3]: > 50 µM
- HDAC6 selectivity (fold) ([2]; HDAC1 IC50 / HDAC6 IC50): 1908 fold
- IC50 [2, 4]: 26.2 nM

SMILES: FC(F)c1nnc(-c2ccc(Cn3cc(C4CCN(C5CC6(COC6)C5)CC4)nn3)nc2)o1 [Compound 3810, 2-(6-((4-(1-(2-oxaspiro[3.3]heptan-6-yl)piperidin-4-yl)-1H-1,2,3-triazol-1-yl)methyl)pyridin-3-yl)-5-(difluoromethyl)-1,3,4-oxadiazole]
- IC50 [1, 3]: > 50 µM
- HDAC6 selectivity (fold) ([2]; HDAC1 IC50 / HDAC6 IC50): 178 fold
- IC50 [2, 4]: 280 nM

SMILES: CCN1CCCC(c2cn(Cc3ccc(-c4nnc(C(F)F)o4)cn3)nn2)C1 (stereo not drawn) [Compound 4002, 2-(difluoromethyl)-5-(6-((4-(1-ethylpiperidin-3-yl)-1H-1,2,3-triazol-1-yl)methyl)pyridin-3-yl)-1,3,4-oxadiazole]
- IC50 [1, 3]: > 50 µM
- HDAC6 selectivity (fold) ([2]; HDAC1 IC50 / HDAC6 IC50): 96 fold
- IC50 [2, 4]: 520 nM

SMILES: OCc1ccc(-c2cn(Cc3ccc(-c4nnc(C(F)F)o4)cc3F)nn2)cc1 [Compound 4476, (4-(1-(4-(5-(difluoromethyl)-1,3,4-oxadiazol-2-yl)-2-fluorobenzyl)-1H-1,2,3-triazol-4-yl)phenyl)methanol]
- IC50 [1, 3]: > 50 µM
- HDAC6 selectivity (fold) ([2]; HDAC1 IC50 / HDAC6 IC50): 1022 fold
- IC50 [2, 4]: 48.9 nM

SMILES: Fc1cc(-c2nnc(C(F)F)o2)cnc1Cn1cc(-c2cccc(C3CCN(C4CN(C5CCC5)C4)CC3)c2)nn1 [Compound 18878]
- IC50 [1, 5]: > 50 µM
- HDAC6 selectivity (fold) ([2]; HDAC6 over HDAC1): 429 fold
- IC50 [2, 6]: 116 nM

SMILES: FC(F)c1nnc(-c2ccc(Cn3cc(-c4cccc5[nH]ccc45)nn3)cc2)o1 [Compound 4078, 2-(4-((4-(1H-indol-4-yl)-1H-1,2,3-triazol-1-yl)methyl)phenyl)-5-(difluoromethyl)-1,3,4-oxadiazole]
- IC50 [1, 3]: > 50 µM
- HDAC6 selectivity (fold) ([2]; HDAC1 IC50 / HDAC6 IC50): 1424 fold
- IC50 [2, 4]: 35.1 nM

SMILES: FC(F)c1nnc(-c2ccc(Cn3cc(-c4cccc(NC5COC5)c4)nn3)cc2)o1 [Compound 4326, N-(3-(1-(4-(5-(difluoromethyl)-1,3,4-oxadiazol-2-yl)benzyl)-1H-1,2,3-triazol-4-yl)phenyl)oxetan-3-amine]
- IC50 [1, 3]: > 50 µM
- HDAC6 selectivity (fold) ([2]; HDAC1 IC50 / HDAC6 IC50): 889 fold
- IC50 [2, 4]: 56.2 nM

SMILES: Fc1cc(-c2nnc(C(F)F)o2)cnc1Cn1cc(-c2ccccc2CN2CCCC2)nn1 [Compound 18823]
- IC50 [1, 5]: > 50 µM
- HDAC6 selectivity (fold) ([2]; HDAC6 over HDAC1): 131 fold
- IC50 [2, 6]: 380 nM

SMILES: Fc1cc(-c2nnc(C(F)F)o2)ccc1Cn1cc(-c2cccc(C3CN(C4CCC4)C3)c2)nn1 [Compound 4507]
- IC50 [1, 5]: > 50 µM
- HDAC6 selectivity (fold) ([2]; HDAC6 over HDAC1): 1779 fold
- IC50 [2, 6]: 28.1 nM

SMILES: CN(C)Cc1cccc(-c2cn(Cc3ccc(-c4nnc(C(F)F)o4)cc3F)nn2)c1Cl [Compound 18554, 1-(2-chloro-3-(1-(4-(5-(difluoromethyl)-1,3,4-oxadiazol-2-yl)-2-fluorobenzyl)-1H-1,2,3-triazol-4-yl)phenyl)-N,N-dimethylmethanamine]
- IC50 [1, 5]: > 50 µM
- HDAC6 selectivity (fold) ([2]; HDAC6 over HDAC1): 1012 fold
- IC50 [2, 6]: 49.4 nM

SMILES: CN(C)CCN(C)Cc1cccc(-c2cn(Cc3ccc(-c4nnc(C(F)F)o4)cn3)nn2)c1 [Compound 3918, N1-(3-(1-((5-(5-(difluoromethyl)-1,3,4-oxadiazol-2-yl)pyridin-2-yl)methyl)-1H-1,2,3-triazol-4-yl)benzyl)-N1,N2,N2-trimethylethane-1,2-diamine]
- IC50 [1, 3]: > 50 µM
- HDAC6 selectivity (fold) ([2]; HDAC1 IC50 / HDAC6 IC50): 1190 fold
- IC50 [2, 4]: 42 nM

SMILES: CN(C)Cc1cc(-c2cn(Cc3ccc(-c4nnc(C(F)F)o4)cc3F)nn2)cs1 [Compound 18188, 1-(4-(1-(4-(5-(difluoromethyl)-1,3,4-oxadiazol-2-yl)-2-fluorobenzyl)-1H-1,2,3-triazol-4-yl)thiophen-2-yl)-N,N-dimethylmethanamine]
- IC50 [1, 5]: > 50 µM
- HDAC6 selectivity (fold) ([2]; HDAC6 over HDAC1): 668 fold
- IC50 [2, 6]: 74.8 nM

SMILES: Fc1ccc(N2CCNCC2)cc1-c1cn(Cc2ccc(-c3nnc(C(F)F)o3)cc2)nn1 [Compound 4450, 2-(difluoromethyl)-5-(4-((4-(2-fluoro-5-(piperazin-1-yl)phenyl)-1H-1,2,3-triazol-1-yl)methyl)phenyl)-1,3,4-oxadiazole]
- IC50 [1, 3]: > 50 µM
- HDAC6 selectivity (fold) ([2]; HDAC1 IC50 / HDAC6 IC50): 2604 fold
- IC50 [2, 4]: 19.2 nM

SMILES: Fc1cc(-c2nnc(C(F)F)o2)ccc1Cn1cc(-c2cccc(NC3CCOCC3)c2)nn1 [Compound 4331, N-(3-(1-(4-(5-(difluoromethyl)-1,3,4-oxadiazol-2-yl)-2-fluorobenzyl)-1H-1,2,3-triazol-4-yl)phenyl)tetrahydro-2H-pyran-4-amine]
- IC50 [1, 3]: > 50 µM
- HDAC6 selectivity (fold) ([2]; HDAC1 IC50 / HDAC6 IC50): 1106 fold
- IC50 [2, 4]: 45.2 nM

SMILES: CN1CCN(Cc2cccc(-c3cn(Cc4ccc(-c5nnc(C(F)F)o5)cc4F)nn3)c2)CC1 [Compound 4406, 2-(difluoromethyl)-5-(3-fluoro-4-((4-(3-((4-methylpiperazin-1-yl)methyl)phenyl)-1H-1,2,3-triazol-1-yl)methyl)phenyl)-1,3,4-oxadiazole]
- IC50 [1, 3]: > 50 µM
- HDAC6 selectivity (fold) ([2]; HDAC1 IC50 / HDAC6 IC50): 892 fold
- IC50 [2, 4]: 56 nM

SMILES: CC(C)(C)OC(=O)Nc1cccc(-c2cn(Cc3ccc(-c4nnc(C(F)F)o4)cn3)nn2)c1 [Compound 3741, Tert-butyl (3-(1-((5-(5-(difluoromethyl)-1,3,4-oxadiazol-2-yl)pyridin-2-yl)methyl)-1H-1,2,3-triazol-4-yl)phenyl)carbamate]
- IC50 [1, 3]: > 50 µM
- HDAC6 selectivity (fold) ([2]; HDAC1 IC50 / HDAC6 IC50): 1754 fold
- IC50 [2, 4]: 28.5 nM

SMILES: CC(C)N1CCC(F)(c2cn(Cc3ccc(-c4nnc(C(F)F)o4)cn3)nn2)CC1 [Compound 4007, 2-(difluoromethyl)-5-(6-((4-(4-fluoro-1-isopropylpiperidin-4-yl)-1H-1,2,3-triazol-1-yl)methyl)pyridin-3-yl)-1,3,4-oxadiazole]
- IC50 [1, 3]: > 50 µM
- HDAC6 selectivity (fold) ([2]; HDAC1 IC50 / HDAC6 IC50): 2873 fold
- IC50 [2, 4]: 17.4 nM

SMILES: Fc1cc(-c2nnc(C(F)F)o2)ccc1Cn1cc(-c2ccc(CN3CCCC3)s2)nn1 [Compound 17913, 2-(difluoromethyl)-5-(3-fluoro-4-((4-(5-(pyrrolidin-1-ylmethyl)thiophen-2-yl)-1H-1,2,3-triazol-1-yl)methyl)phenyl)-1,3,4-oxadiazole]
- IC50 [1, 5]: > 50 µM
- HDAC6 selectivity (fold) ([2]; HDAC6 over HDAC1): 1547 fold
- IC50 [2, 6]: 32.3 nM

SMILES: CC(=O)N1CCC(Nc2ccc(F)c(-c3cn(Cc4ccc(-c5nnc(C(F)F)o5)cc4F)nn3)c2)CC1 [Compound 4437, 1-(4-((3-(1-(4-(5-(difluoromethyl)-1,3,4-oxadiazol-2-yl)-2-fluorobenzyl)-1H-1,2,3-triazol-4-yl)-4-fluorophenyl)amino)piperidin-1-yl)ethan-1-one]
- IC50 [1, 3]: > 50 µM
- HDAC6 selectivity (fold) ([2]; HDAC1 IC50 / HDAC6 IC50): 600 fold
- IC50 [2, 4]: 83.3 nM

SMILES: CCN1CC(c2cccc(-c3cn(Cc4ccc(-c5nnc(C(F)F)o5)cn4)nn3)c2)C1 [Compound 4502, 2-(difluoromethyl)-5-(6-((4-(3-(1-ethylazetidin-3-yl)phenyl)-1H-1,2,3-triazol-1-yl)methyl)pyridin-3-yl)-1,3,4-oxadiazole]
- IC50 [1, 5]: > 50 µM
- HDAC6 selectivity (fold) ([2]; HDAC6 over HDAC1): 3571 fold
- IC50 [2, 6]: 14.2 nM

SMILES: FC(F)c1nnc(-c2ccc(Cn3cc(-c4ccc(CN5CCC5)cc4)nn3)cc2)o1 [Compound 4548, 2-(4-((4-(4-(azetidin-1-ylmethyl)phenyl)-1H-1,2,3-triazol-1-yl)methyl)phenyl)-5-(difluoromethyl)-1,3,4-oxadiazole]
- IC50 [1, 5]: > 50 µM
- HDAC6 selectivity (fold) ([2]; HDAC6 over HDAC1): 4545 fold
- IC50 [2, 6]: 13.1 nM

From patent publication US20230257372A1 (CHONG KUN DANG PHARMACEUTICAL CORP., priority 2020, published 2023)
